Several values for one entry are separate records, joined by “and”; a condition that tells them apart may be missing. Identical values can stand only once.
Tests used:
[1] = system: patients with acute ischemic stroke; assay: Phase II clinical test: change ratio of cerebral infarction lesion (MRI, day 4 vs baseline); assay type: in vivo, human
Procedure: A multi-organ, randomly allocated, double-blind, placebo-controlled, and initial phase II clinical test was conducted on patients with acute ischemic stroke to explore and evaluate the efficacy and safety of the study drug, respectively. This clinical test includes a total of three cohorts, and test subject registration starts from Cohort 1, and when the safety is secured, Cohort 2 is sequentially registered. The registration of Cohort 2 proceeds when the safety is secured after evaluation by the Data Safety Monitoring Board (DSMB) at the time point when all the test subjects of Cohort 1 completed Visit 5 (Day 29). Cohorts 1 and 2 are for confirming the safety and efficacy of the test drug, and based on this, the dose and dosage regimen, and the like of Cohort 3 are determined.
This clinical test is conducted on patients with modified thrombolysis in cerebral infarction (mTICI) 2b or 3 grade reperfusion in angiography after endovascular recanalization therapy (ERT) among patients with severe ischemic stroke in moderate cases confirmed to have undergone acute cerebral artery occlusion of the anterior circulation system. Intravenous tissue plasminogen activator (IV tPA) intravenous administration is permitted when the stroke is indicated before ERT. Furthermore, when angiography is performed for ERT after intravenous tPA administration, patients who have already undergone mTICI 2b-3 reperfusion by a venous tPA effect alone before ERT also become a subject of the clinical test.
The following Cohorts 1 to 3 are administered using an infusion pump after mixing a test drug or control drug with an infusion solution.
Cohort 1. Low-Dose Administration Group • Test drug group: administration of the test drug is started within 30 minutes after reperfusion is confirmed within 6 hours after the onset of the symptom. Immediately after intravenous administration (bolus) of 150 mg of the test drug for 15 minutes, 750 mg of the test drug is intravenously IV infused for 23 hours and 45 minutes (f2 hours). Administration of the test drug should be started within 6.5 hours after the onset of the symptom. • Control drug group: a placebo is administered in the same manner as in the test drug group.
Diffusion weighted imaging (DWI) and gradient-recalled echo (GRE) or susceptibility weighted imaging (SWI), and magnetic resonance imaging (MRI) examination are performed within 90 minutes after reperfusion while administering a medicine for a clinical test, and this is utilized as a baseline result. A change ratio of cerebral infarction lesion at a time point of day 4 compared to the baseline was measured.
For comparison between a test group and the placebo, a two sample t-test is used after log conversion of an evaluation variable (infarct growth ratio). Additionally, a comparison between the test group and the placebo is made using a Wilcoxon rank sum test for a source data log which is not log-converted.
When factors that may affect prognosis should be corrected, analysis of covariance (ANCOVA) is used after log conversion of the evaluation variables (infarct growth ratio).
In patients who were administered a control drug or a test drug, the change ratio of cerebral infarction lesions among patients with similar baselines of cerebral infarction lesions was confirmed (Table 3).

[2] = Population pharmacokinetics model (NONMEM) built on single dose phase 1 data; set-up: species or system human
Procedure: A pharmacokinetics model for administration of a test drug was established for integration with a quantitative pharmacokinetics model for simulating the efficacy and safety of test drugs, as well as simulating the pharmacokinetics of future doses and dosage regimens. The simulation was performed by constructing a pharmacokinetics model based on pharmacokinetics information and demographic information of a total of 30 test subjects who were administered 35 mg, 75 mg, 150 mg, 300 mg, and 600 mg among the test subjects who participated in the single dose clinical test of test drug phase 1. The analysis was performed by a non-linear mixed effect modeling method using NONMEM® (version 7.2; ICON Development Solutions, Ellicott City, Md., USA).
The population pharmacokinetics model was constructed in the order of structural model construction, covariate analysis, and model selection. As a first step, a basic structural model was constructed, and as a step of establishing a model capable of best explaining the change in drug concentration over time, the most pharmacologically and statistically suitable model was selected by performing a search in the order of a 1-compartment model, a 2-compartment model, and a 3-compartment model. As the next step, covariate analysis was performed, and the effects of age, height, body weight, serum creatine, BUN, albumin, AST, and ALT concentrations which are part of the demographic information on pharmacokinetics were quantitatively evaluated. Finally, model selection (internal validation) was performed, a simulation of the established model was performed, and this was evaluated by a visual predictive check (VPC), which is a schematic evaluation method.
The pattern of time-blood concentration changes of the test drug is best explained by a 3-compartment model with 1st order elimination. No significant covariate was found in the covariate analysis utilizing age, height, body weight, serum creatine, BUN, albumin, AST, and ALT concentrations.

[3] = Cohort 1, day 4 compared to baseline, individual patients 2, 4, 6, 8, dihydrochloride
[4] = 3-compartment model, structural model
[5] = interindividual variability, predicted value

Structure (SMILES): CCOc1cc(CN2CCOCC2)cc2[nH]c(=O)c3c(c12)NCCC3.Cl.Cl [Test drug, 10-ethoxy-8-(morpholinomethyl)-1,2,3,4-tetrahydrobenzo[h][1,6]naphthyridin-5(6H)-one dihydrochloride]
- Cerebral infarction lesion, Baseline ([1]; Cohort 1 (150 mg bolus + 750 mg infusion), individual patients 2, 4, 6, 8, MRI within 90 minutes after reperfusion, dihydrochloride): 1.59 cc and 10.1 cc and 32 cc and 126.66 cc
- Cerebral infarction lesion, Time point of day 4 ([1]; Cohort 1 (150 mg bolus + 750 mg infusion), individual patients 2, 4, 6, 8, dihydrochloride): 2.67 cc and 10.94 cc and 45.33 cc and 127.61 cc
- Change ratio of cerebral infarction lesion [1, 3]: 1.68 and 1.08 and 1.42 and 1.01
- Rate of increase in cerebral infarction lesion [1, 3]: 67.9% and 8.3% and 41.7% and 0.8%
- rate of increase in cerebral infarction lesions compared to control drug group ([1]; patients with similar baselines, Table 3): significantly low rate of increase in cerebral infarction lesions
- 1st Clearance of peripheral compartment (Q1), predicted value [2, 4]: 162 L/h
- 1st Volume of peripheral compartment (V2), predicted value [2, 4]: 58.5 L
- 2nd Clearance of peripheral compartment (Q2), predicted value [2, 4]: 2.66 L/h
- 2nd Volume of peripheral compartment (V3), predicted value [2, 4]: 8.81 L
- Volume of central compartment (V1), predicted value [2, 4]: 15.2 L
- Clearance of central compartment (CL), predicted value ([2]; 3-compartment model, structural model, 30 subjects, 35-600 mg IV): 32.0 L/h
- Interindividual model CL [2, 5]: 43.8%
- Interindividual model Q1 [2, 5]: 41.7%
- Interindividual model Q2 [2, 5]: 28.1%
- Interindividual model V1 [2, 5]: 52.4%
- Interindividual model V2 [2, 5]: 20.2%
- Interindividual model V3 [2, 5]: 64.1%

Reference: patent publication US20220265671A1, “METHOD FOR TREATING STROKE BY USING TRICYCLIC DERIVATIVE” (Jeil Pharmaceutical Co., Ltd., priority 2019, published 2022)
